Measurements reported in ChEMBL document CHEMBL5029177, “Synthetic enamine naphthoquinone derived from lawsone as cytotoxic agents assessed by in vitro and in silico evaluations” (Bioorg Med Chem Lett, 2021).
Active and inactive are the calls of the source. The calls are words filed in the database; no cut-off is given here.

Key:
[1] = system: HCT-116; experiment: Antiproliferative activity against human HCT-116 cells assessed as reduction in cell viability by MTT assay; format: functional, cell-based
[2] = system: PC-3; experiment: Antiproliferative activity against human PC-3 cells assessed as reduction in cell viability by MTT assay; format: functional, cell-based
[3] = system: HL-60; experiment: Antiproliferative activity against human HL-60 cells assessed as reduction in cell viability by MTT assay; format: functional, cell-based
[4] = system: SNB-19; experiment: Antiproliferative activity against human SNB-19 cells assessed as reduction in cell viability by MTT assay; format: functional, cell-based
[5] = system: HCT-116; experiment: Induction of cell cycle arrest in human HCT-116 cells assessed as accumulation at S phase at 20 uM after 24 hrs by PI-staining based flow cytometric analysis (reference value: 39.7%); format: functional
[6] = system: HCT-116; experiment: Induction of cell cycle arrest in human HCT-116 cells after 24 hrs by PI-staining based flow cytometric analysis; format: functional

| Compound | IC50 [1] [µM] | IC50 [2] [µM] | IC50 [3] [µM] | IC50 [4] [µM] | Activity [5] [%] | Activity [6] |
| --- | --- | --- | --- | --- | --- | --- |
| CS(=O)(=O)OCCNC1=CC(=O)c2ccccc2C1=O | 16.3 | 62.8 | 27.5 | 31.2 |  |  |
| Cc1ccc(S(=O)(=O)OCCNC2=CC(=O)c3ccccc3C2=O)cc1 | 81.8 | 59.2 | > 200 | 21.1 |  |  |
| O=C1C=C(NCCO)C(=O)c2ccccc21 | 70.3 | 107 | 49.8 | 108 |  |  |
| COc1cccc2c1C(=O)c1c(O)c3c(c(O)c1C2=O)C[C@@](O)(C(=O)CO)C[C@@H]3O[C@H]1C[C@H](N)[C@H](O)[C@H](C)O1 [DOXORUBICIN] |  |  | 2.05 | 0.76 |  |  |
| O=C1C=C(NCc2ccccn2)C(=O)c2ccccc21 | 13.5 | 16.5 | 4.59 | 23.1 | 47.57 |  |
| O=C1C=C(NCCCNc2nc(N3CCOCC3)nc(N3CCOCC3)n2)C(=O)c2ccccc21 | 57.5 | 41.8 | 53.4 | 126 |  |  |
| O=c1[nH]cc(F)c(=O)[nH]1 [FLUOROURACIL] | 19.3 | 32.9 |  |  | 66.6 |  |
| NCCCNC1=CC(=O)c2ccccc2C1=O | 59.6 | 63.2 | 30 | 71.3 |  |  |
| O=C1C=C(NCCCNc2ccnc3cc(Cl)ccc23)C(=O)c2ccccc21 | 11.5 | 8.39 | 4.78 | 16.9 |  | inactive |
| CNC1=CC(=O)c2ccccc2C1=O | 55.7 | 93.3 | 41.4 | 114 |  |  |
| O=C1C=C(NCc2ccccc2)C(=O)c2ccccc21 | 130 | 70.6 | 86.5 | 80 |  |  |
| O=C1C=C(N2CCCC2)C(=O)c2ccccc21 | 159 | > 200 | 111 | > 200 |  |  |
